From US3965180A, “4'-Fluoro-4-{[4-(phenyl)-4-alkoxy-cyclo-hexyl]amino}butyrophenones and the salts thereof” (The Upjohn Company, priority 1973, dated 1976)
Counter-ions that a name gives are not always drawn.

Assays:
Assay type in all cases: in vivo
mice [1] = test: Dish test (mice remaining in Petri dish for more than 3 minutes); settings: Mus musculus, ip, 0.05 h, intraperitoneal injection, dose at which 50% of the mice remain in the dish more than 3 minutes, read-out: ED50, D = dish test
Procedure: (§1) The free bases and acid addition salts of the novel compounds of Formula I are useful as central nervous system (CNS) depressants when administered to humans and animals.
(§2) Tranquilizing effects of certain compounds of this invention are shown by the following tests in mice:
Dish test: Mice in Petri dishes (10 cm. diameter, 5 cm. high, partially embedded in wood shavings), climb out in a very short time, when not treated. Mice remaining in the dish for more than 3 minutes indicates tranquilization. ED50 equals the dose of test compound at which 50% of the mice remain in the dish.

mice [2] = test: Pedestal test (mice staying on the pedestal for more than 1 minute); settings: Mus musculus, ip, 1 min, intraperitoneal injection, stay on pedestal for more than 1 minute, read-out: ED50, P = pedestal test
Procedure: as §1, §2
Pedestal test: The untreated mouse leaves a standard pedestal in less than a minute to climb back to the floor of the standard mouse box. Tranquilized mice will stay on the pedestal for more than 1 minute.

mice [3] = test: Nicotine antagonism test (nicotine salicylate 2 mg./kg.; (3) death); settings: Mus musculus, ip, intraperitoneal injection 30 minutes before nicotine salicylate (2 mg./kg.), read-out: ED50, Ni = nicotine antagonism (3) test
Procedure: as §2
Nicotine antagonism test: Mice in a group of 6 are injected with the test compound. Thirty minutes later the mice including control (untreated) mice are injected with nicotine salicylate (2 mg./kg.). The control mice show overstimulation, i.e., (1) running convulsions followed by (2) tonic extensor fits; followed by (3) death.

mice [4] = test: Chimney test (ability of mice to back up and out of a vertical glass cylinder within 30 seconds); settings: Mus musculus, ip, intraperitoneal injection, dose at which 50% of the mice failed to back out within 30 seconds, read-out: ED50, Ch = chimney test
From the text: as §1, §2
Chimney test: [Med. Exp. 4, 145 (1961)]: The test determines the ability of mice to back up and out of a vertical glass cylinder within 30 seconds. At the effective dosage, 50% of the mice failed doing it.

CO[C@]1(c2ccc(F)cc2)CC[C@@H](NCCCC(=O)c2ccc(F)cc2)CC1 [4'-fluoro-4-{[4-cis-(p-fluorophenyl)-4-transmethoxycyclohexyl]amino}butyrophenone hydrohydrochloride (I)] showed an ED50 (mice [1]) of 1.6 mg/kg, an ED50 (mice [2]) of 2.5 mg/kg and an ED50 (mice [3]) of 3.2 mg/kg. For the same compound, the ED50 (mice [4]) was 8 mg/kg.

CO[C@]1(c2ccc(C)cc2)CC[C@H](NCCCC(=O)c2ccc(F)cc2)CC1 [4'-fluoro-4-{[4-cis-methoxy-4-trans-(p-methylphenyl)cyclohexyl]amino}butyrophenone hydrochloride (I)] showed an ED50 (mice [1]) of 1.1 mg/kg, an ED50 (mice [2]) of 2 mg/kg and an ED50 (mice [3]) of 4.5 mg/kg. The ED50 (mice [4]) was 2.5 mg/kg.

CO[C@]1(c2ccc(F)cc2)CC[C@H](NCCCC(=O)c2ccc(F)cc2)CC1 [4'-fluoro-4-{[4-trans-(p-fluorophenyl)-4-cis-methoxycyclohexyl]amino}butyrophenone hydrochloride (I)] was tested, and the ED50 (mice [1]) was 0.09 mg/kg, the ED50 (mice [2]) was 1.3 mg/kg and the ED50 (mice [3]) was 0.4 mg/kg. For the same compound, the ED50 (mice [4]) was 2.5 mg/kg.
